{"source": "patent US20250270256A1", "about": "“NOVEL ANTIMICROBIAL PEPTIDE WITH EXCELLENT MICROBIAL CYTOPLASM ELUTION EFFECT” (CELLICON LAB INC., priority 2021, published 2025)", "key": {"[1]": {"test_system": "Escherichia coli", "format": "cell-based", "conditions": "for antimicrobial activity against Escherichia coli (in words): comparison between peptides, FIGS. 1A-4A", "experimental": "Specifically, in order to evaluate the antimicrobial activity, the antimicrobial activity against Escherichia coli was measured, and Escherichia coli was treated with antimicrobial peptides, and cell viability was measured and compared.\nIn order to test the antimicrobial efficacy of antimicrobial peptides, Escherichia coli was cultured in LB medium for about 8 hours, and then the cultured bacteria were dispensed into a 96-well plate. Antimicrobial peptide samples at various concentrations were added into the respective wells, and incubation was performed at 37° C. for 24 hours.\nIn order to evaluate the antimicrobial activity against Escherichia coli, MIC (minimum inhibitory concentration) and IC50 were additionally measured in addition to the experiments conducted in Examples 1-1 and 1-2.\nSpecifically, an antimicrobial efficacy experiment was used as the experimental method, and the MIC and IC50 values for the experimental results were calculated by evaluating the minimum inhibitory concentration and the 50% inhibitory concentration with the absorbance and OD value, respectively."}, "[2]": {"test_system": "Candida albicans", "format": "cell-based", "experimental": "(§1) In order to evaluate whether the antimicrobial peptides of the present disclosure have antimicrobial activity against bacteria other than Escherichia coli, antimicrobial effects against Escherichia coli, Staphylococcus aureus, Pseudomonas aeruginosa, and Candida albicans, which were strains announced by the Ministry of Food and Drug Safety, were examined.\n(§2) Specifically, Escherichia coli, Staphylococcus aureus, and Pseudomonas aeruginosa were cultured using LB medium, and Candida albicans was cultured using YM medium, and then the cultured bacteria were dispensed into a 96-well plate. Antimicrobial peptide samples at various concentrations were added into the respective wells, and incubation was performed at 37° C. for 24 hours."}, "[3]": {"test_system": "Escherichia coli", "format": "cell-based", "experimental": "as §1, §2"}, "[4]": {"test_system": "Pseudomonas aeruginosa", "format": "cell-based", "experimental": "as §1, §2"}, "[5]": {"test_system": "Staphylococcus aureus", "format": "cell-based", "experimental": "as §1, §2"}, "[6]": {"test_system": "Human keratinocytes (HaCaT)", "conditions": "24 hours, comparison between peptides, FIGS. 1B-4B", "protocol": "Therefore, cytotoxicity to human keratinocytes was also evaluated by treating human keratinocytes with antimicrobial peptides and measuring cell viability.\nHuman keratinocytes (HaCaT) were purchased from ATCC (American Type Culture Collection, USA) and cultured in Dulbecco's modified Eagle's medium (DMEM, Gibco, USA) containing 10% fetal bovine serum (FBS, Gibco, USA) and 1% antibiotic-antimycotic (Gibco, USA) at 37° C. in a 5% CO2 incubator.\nMTT assay was performed to determine the viability of HaCaT cells against antimicrobial peptides. HaCaT cells were cultured in a 96-well plate at 2×10^5 cells/mL for 24 hours, then treated with samples at various concentrations, and cultured again for 24 hours. The culture medium was removed, and the cells were treated with MTT solution (0.5 mg/mL in PBS). After 4 hours, the MTT solution was removed, DMSO was added to each well, and formazan was dissolved at 37° C. for 30 minutes. Absorbance was measured at 570 nm using a microplate reader (Molecular Devices Spectra MAX, Sunnyvale, CA, USA)."}, "[7]": {"test_system": "Escherichia coli", "test": "Disk diffusion test (Kirby-Bauer): Escherichia coli", "format": "cell-based", "conditions": "10 μL sample, 37° C. for 16 hours", "experimental": "(§3) In order to perform a disk diffusion test for the four kinds of bacteria, the following experiment was conducted.\n(§4) After Escherichia coli, Staphylococcus aureus, Pseudomonas aeruginosa, and Candida albicans were cultured in the respective media, a certain amount of the cultured bacteria was spread on unhardened solid media, and then the media were hardened. On the surface of the hardened solid medium, 10 μL of antimicrobial peptide sample was placed, a dry 3M paper disk was put thereon, then incubation was performed at 37° C. for 16 hours, and the size of the zone of inhibition was observed."}, "[8]": {"test_system": "Staphylococcus aureus", "test": "Disk diffusion test (Kirby-Bauer): Staphylococcus aureus", "format": "cell-based", "conditions": "10 μL sample, 37° C. for 16 hours", "experimental": "as §3, §4"}, "[9]": {"test_system": "Pseudomonas aeruginosa", "test": "Disk diffusion test (Kirby-Bauer): Pseudomonas aeruginosa", "format": "cell-based", "conditions": "10 μL sample, 37° C. for 16 hours", "experimental": "as §3, §4"}, "[10]": {"test_system": "Candida albicans", "test": "Disk diffusion test (Kirby-Bauer): Candida albicans", "format": "cell-based", "conditions": "10 μL sample, 37° C. for 16 hours", "experimental": "as §3, §4"}, "[11]": {"test_system": "Escherichia coli", "test": "SEM analysis of Escherichia coli treated with peptide", "format": "cell-based", "conditions": "Escherichia coli treated for 30 minutes", "experimental": "In order to closely examine the effect of the antimicrobial peptide of the present disclosure on microorganisms, Escherichia coli was treated with the peptide of SEQ ID NO: 6 for 30 minutes, and then the antimicrobial effect was analyzed using a scanning electron microscope (SEM).\nSpecifically, for SEM analysis, Escherichia coli was cultured using LB medium, then a certain amount of cultured Escherichia coli was taken and treated with the peptide of SEQ ID NO: 6 for 30 minutes, washed with PBS 2 times, and then fixed with a primary fixative of 2% paraformaldehyde in PBS for 2 hours. After fixation, washing with PBS was performed 2 times, dehydration with 30%, 50%, 70%, 80%, 95%, and 100% ethanol was performed for 10 minutes in each step (the last treatment with 100% ethanol was repeated 3 times), and the pellets were lyophilized. After platinum coating using a coater, analysis by SEM was conducted."}, "[12]": {"conditions": "Candida albicans, YM medium, 24 hours at 37° C., read-out: IC50"}, "[13]": {"conditions": "Escherichia coli, LB medium, 24 hours at 37° C., read-out: IC50"}, "[14]": {"conditions": "Pseudomonas aeruginosa, LB medium, 24 hours at 37° C., read-out: IC50"}, "[15]": {"conditions": "Staphylococcus aureus, LB medium, 24 hours at 37° C., read-out: IC50"}, "[16]": {"conditions": "Escherichia coli, 24 hours at 37° C., absorbance 600 nm"}, "[17]": {"conditions": "Escherichia coli, 24 hours at 37° C., absorbance 600 nm, read-out: IC50"}}, "note": "Entries after “also recorded” stand apart in the source; their conditions may differ. Like-named read-outs stand apart in the source and are kept apart here. Where no end group is shown, it is not given here.", "data": [{"compound": "CC[C@H](C)[C@H](NC(=O)[C@H](CCCCN)NC(=O)[C@H](CCCCN)NC(=O)[C@H](Cc1ccccc1)NC(=O)[C@H](CC(C)C)NC(=O)[C@H](CCCCN)NC(=O)[C@@H](N)CCCCN)C(=O)N[C@@H](CC(C)C)C(=O)N[C@@H](CCCCN)C(=O)N[C@@H](Cc1ccc(O)cc1)C(=O)N[C@@H](CC(C)C)C(=O)N[C@@H](CCCCN)C(=O)O", "note": "[SEQ ID NO: 1, H2N-[Lys-Lys-Leu-Phe-Lys-Lys-Ile-Leu-Lys-Tyr-Leu-Lys]-CO2H]", "values": [{"measurement": "antimicrobial activity against Escherichia coli (in words)", "setting": "[1]", "result": "remarkably increased compared to that of the known peptide"}, {"measurement": "IC50", "setting": "[2]; [12]", "result": 19, "unit": "µM"}, {"measurement": "IC50", "setting": "[3]; [13]", "result": 21, "unit": "µM"}, {"measurement": "IC50", "setting": "[4]; [14]", "result": 12, "unit": "µM"}, {"measurement": "IC50", "setting": "[5]; [15]", "result": 22, "unit": "µM"}, {"measurement": "toxicity level to human keratinocytes (in words)", "setting": "[6]", "result": "maintained at a similar level to that of the known peptide"}]}, {"compound": "H-KRLFKRILRYLK-OH [SEQ ID NO: 7, H2N-[Lys-Arg-Leu-Phe-Lys-Arg-Ile-Leu-Arg-Tyr-Leu-Lys]-CO2H]", "values": [{"measurement": "IC50", "setting": "[1]; 24 h", "result": 11, "unit": "µM"}, {"measurement": "MIC", "setting": "[1]; 24 h", "result": 62.5, "unit": "µM"}, {"measurement": "IC50", "setting": "[2]; 24 h", "result": 10, "unit": "µM"}, {"measurement": "IC50", "setting": "[3]; 24 h", "result": 11, "unit": "µM"}, {"measurement": "IC50", "setting": "[4]; 24 h", "result": 8, "unit": "µM"}, {"measurement": "IC50", "setting": "[5]; 24 h", "result": 13, "unit": "µM"}]}, {"compound": "KRLFRKILKYLR [SEQ ID NO: 6, H2N-[Lys-Arg-Leu-Phe-Arg-Lys-Ile-Leu-Lys-Tyr-Leu-Arg]-CO2H]", "values": [{"measurement": "MIC", "setting": "[1]; [16]", "result": 31.25, "unit": "µM"}, {"measurement": "IC50", "setting": "[1]; [17]", "result": 9, "unit": "µM"}, {"measurement": "antimicrobial activity against Escherichia coli (in words)", "setting": "[1]", "result": "most remarkably excellent"}, {"measurement": "IC50", "setting": "[2]; [12]", "result": 6, "unit": "µM"}, {"measurement": "IC50", "setting": "[3]; [13]", "result": 9, "unit": "µM"}, {"measurement": "IC50", "setting": "[4]; [14]", "result": 4, "unit": "µM"}, {"measurement": "IC50", "setting": "[5]; [15]", "result": 10, "unit": "µM"}, {"measurement": "zone of inhibition", "setting": "[7]", "result": "transparent zones of inhibition with clear borders"}, {"measurement": "zone of inhibition", "setting": "[8]", "result": "transparent zones of inhibition with clear borders"}, {"measurement": "zone of inhibition", "setting": "[9]", "result": "transparent zones of inhibition with clear borders"}, {"measurement": "zone of inhibition", "setting": "[10]", "result": "transparent zones of inhibition with clear borders"}, {"measurement": "effect on cell membrane observed by SEM", "setting": "[11]", "result": "entire cell membrane of Escherichia coli is destroyed to form large pores and elution of cell contents of the bacteria is observed"}]}, {"compound": "RKLFKRILRYLK [SEQ ID NO: 5, H2N-[Arg-Lys-Leu-Phe-Lys-Arg-Ile-Leu-Arg-Tyr-Leu-Lys]-CO2H]", "values": [{"measurement": "MIC", "setting": "[1]; [16]", "result": 62.5, "unit": "µM"}, {"measurement": "IC50", "setting": "[1]; [17]", "result": 12, "unit": "µM"}, {"measurement": "IC50", "setting": "[2]; [12]", "result": 11, "unit": "µM"}, {"measurement": "IC50", "setting": "[3]; [13]", "result": 12, "unit": "µM"}, {"measurement": "IC50", "setting": "[4]; [14]", "result": 9, "unit": "µM"}, {"measurement": "IC50", "setting": "[5]; [15]", "result": 15, "unit": "µM"}]}, {"compound": "RKLFRKILKYLR [SEQ ID NO: 8, H2N-[Arg-Lys-Leu-Phe-Arg-Lys-Ile-Leu-Lys-Tyr-Leu-Arg]-CO2H]", "values": [{"measurement": "MIC", "setting": "[1]; [16]", "result": 31.25, "unit": "µM"}, {"measurement": "IC50", "setting": "[1]; [17]", "result": 10, "unit": "µM"}, {"measurement": "antimicrobial activity against Escherichia coli (in words)", "setting": "[1]", "result": "most remarkably excellent"}, {"measurement": "IC50", "setting": "[2]; [12]", "result": 8, "unit": "µM"}, {"measurement": "IC50", "setting": "[3]; [13]", "result": 10, "unit": "µM"}, {"measurement": "IC50", "setting": "[4]; [14]", "result": 5, "unit": "µM"}, {"measurement": "IC50", "setting": "[5]; [15]", "result": 10, "unit": "µM"}]}, {"compound": "RRLFRRILRYLR [SEQ ID NO: 2, H2N-[Arg-Arg-Leu-Phe-Arg-Arg-Ile-Leu-Arg-Tyr-Leu-Arg]-CO2H]", "values": [{"measurement": "MIC", "setting": "[1]; [16]", "result": 62.5, "unit": "µM"}, {"measurement": "IC50", "setting": "[1]; [17]", "result": 14, "unit": "µM"}, {"measurement": "antimicrobial activity against Escherichia coli (in words)", "setting": "[1]", "result": "remarkably increased compared to that of the peptide of SEQ ID NO: 1; also recorded: remarkably excellent compared to that of the peptides of SEQ ID NO: 3 and SEQ ID NO: 4"}, {"measurement": "IC50", "setting": "[2]; [12]", "result": 13, "unit": "µM"}, {"measurement": "IC50", "setting": "[3]; [13]", "result": 14, "unit": "µM"}, {"measurement": "IC50", "setting": "[4]; [14]", "result": 10, "unit": "µM"}, {"measurement": "IC50", "setting": "[5]; [15]", "result": 17, "unit": "µM"}, {"measurement": "toxicity level to human keratinocytes (in words)", "setting": "[6]", "result": "maintained at a level similar to that of SEQ. ID NO: 1 peptide; also recorded: greatly decreased compared to that of the peptides of SEQ ID NO: 3 and SEQ ID NO: 4"}]}]}
